pKi: −log10 of the molar value.
Target: T1, human vasopressin V1b receptor (Homo sapiens, UniProt P47901)
T1 construct: expressed in transfected cells; host or cells: CHO-K1 (cell line hV1b-3H2_CHO), membrane preparation
T1 sequence (P47901 1-424): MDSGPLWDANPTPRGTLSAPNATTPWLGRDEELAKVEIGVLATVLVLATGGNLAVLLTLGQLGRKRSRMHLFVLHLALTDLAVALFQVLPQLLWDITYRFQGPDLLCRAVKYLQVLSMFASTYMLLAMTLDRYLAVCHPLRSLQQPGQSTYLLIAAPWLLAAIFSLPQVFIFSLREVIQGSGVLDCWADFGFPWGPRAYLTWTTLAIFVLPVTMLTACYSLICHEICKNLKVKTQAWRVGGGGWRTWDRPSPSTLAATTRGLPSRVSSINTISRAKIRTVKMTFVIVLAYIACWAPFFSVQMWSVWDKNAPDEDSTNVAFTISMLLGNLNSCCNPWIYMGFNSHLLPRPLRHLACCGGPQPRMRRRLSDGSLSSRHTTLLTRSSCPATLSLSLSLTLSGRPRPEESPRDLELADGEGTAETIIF
Test: Vasopressin V1b receptor binding assay
Details: membranes from CHO-K1 cells with stably expressed human V1b receptors, 1.5 nM 3H-AVP displacement; with more than one stereogenic center: the diastereomer with stronger affinity
Description: Such compounds can be investigated in suitable assays which establish the affinity to a receptor, with the affinity constant Ki represening a measure of the potency of the compounds and a smaller value representing a larger potency. The compounds of the invention were tested in the following receptor binding assay for their affinity for the V1 b receptor.
Vasopressin V1 b Receptor Binding Assay:
The test substances were dissolved in a concentration of 10^−2 M in DMSO (dimethyl sulfoxide) and further diluted to 5×10^−4 M to 5×10^−9 M in DMSO. This series of DMSO predilutions was diluted 1:10 with assay buffer. The substance concentration was again diluted 1:5 in the assay mixture (2% DMSO in the mixture).
The membrane pellet was again homogenized and centrifuged as described and then taken up in 50 mM Tris-HCl, pH 7.4, homogenized and stored in aliquots frozen in liquid nitrogen at −190° C.
The incubation buffer was: 50 mM Tris, 10 mM MgCl2, 0.1% BSA, pH 7.4.
The nonspecific binding was determined with 1 μM AVP (Bachem #H1780). All determinations were carried out as triplicate determinations. After incubation (60 minutes at room temperature), the free radioligand was removed by vacuum filtration (Skatron cell harvester 7000) through Whatman GF/B glass fiber filter mats, and the filters were transferred into scintillation vials. The liquid scintillation measurement took place in a Tricarb model 2000 or 2200CA instrument (Packard). Conversion of the measured cpm into dpm was carried out with the aid of a standard quench series.
The binding parameters were calculated by nonlinear regression in SAS.
The above assay was used to measure the affinities of the compounds of the invention for the human vasopressin V1 b receptor and to determine with affinity constants (Ki).

Row | Compound | pKi
1 | CCOc1nc(Cl)ccc1C1(N2CCN(c3ccncc3)CC2)C(=O)N(S(=O)(=O)c2ccc(C)cn2)c2ccc(C#N)cc21 (racemic) [Example 23, (±)-5-Cyano-3-(6-chloro-2-ethoxypyridin-3-yl)-1-(5-methylpyridine-2-sulfonyl)-3-(4-pyridin-4-ylpiperazin-1-yl)-2,3-dihydro-1H-indol-2-one] | 7.30 to 8.00
2 | CCOc1ccccc1C1(N2CCN(c3ccncc3)CC2)C(=O)N(S(=O)(=O)c2ccc(Cl)c3cccnc23)c2ccc(C#N)cc21 (racemic) [Example 12, (±)-5-Cyano-1-(5-chloroquinoline-8-sulfonyl)-3-(2-ethoxyphenyl)-3-(4-pyridin-4-yl-piperazin-1-yl)-2,3-dihydro-1H-indol-2-one] | 7.30 to 8.00
3 | COc1ncccc1C1(N2CCN(c3ccncc3)CC2)C(=O)N(S(=O)(=O)c2cccc3cccnc23)c2ccc(Cl)cc21 (racemic) [Example 42, (±)-5-Chloro-3-(2-methoxypyridin-3-yl)-3-(4-pyridin-4-ylpiperazin-1-yl)-1-(quinoline-8-sulfonyl)-1,3-dihydroindol-2-one] | 7.30 to 8.00
4 | CCOc1nc(Cl)ccc1C1(N2CC3CN(c4ccnc(C)c4)CC3C2)C(=O)N(S(=O)(=O)c2ccc(OC)cn2)c2ccc(C#N)cc21 (racemic) [Example 149, (±)-5-Cyano-3-(6-chloro-2-ethoxy-pyridin-3-yl)-1-(5-methoxy-pyridine-2-sulfonyl)-3-[5-(2-methyl-pyridin-4-yl)-hexahydro-pyrrolo[3,4-c]pyrrol-2-yl]-2,3-dihydro-1H-indol-2-one] | > 8.00
5 | CCOc1ccccc1C1(N2CCN(c3ccncc3)C(C)C2)C(=O)N(S(=O)(=O)c2cccc3cccnc23)c2ccc(C#N)cc21 (racemic) [Example 17, (±)-5-Cyano-3-(2-ethoxyphenyl)-3-(3-methyl-4-pyridin-4-ylpiperazin-1-yl)-1-(quinoline-8-sulfonyl)-2,3-dihydro-1H-indol-2-one] | 7.30 to 8.00
6 | CCOc1ccc(OC)cc1C1(N2CCN(C3CCNCC3)CC2)C(=O)N(S(=O)(=O)c2ccc(OC)cn2)c2ccc(C#N)cc21 (racemic) [Example 172, (±)-5-Cyano-3-(2-ethoxy-5-methoxy-phenyl)-1-(5-methoxy-pyridine-2-sulfonyl)-3-(4-piperidin-4-yl-piperazin-1-yl)-2,3-dihydro-1H-indol-2-one] | > 8.00
7 | CCOc1c(OC)cccc1C1(N2CCN(c3ccnc(C(C)C)c3)CC2)C(=O)N(S(=O)(=O)c2ccc(OC)cn2)c2ccc(C#N)cc21 (racemic) [Example 173, (±)-5-Cyano-3-(2-ethoxy-3-methoxy-phenyl)-3-[4-(2-isopropyl-pyridin-4-yl)-piperazin-1-yl]-1-(5-methoxy-pyridine-2-sulfonyl)-2,3-dihydro-1H-indol-2-one] | > 8.00
8 | CCOc1cc(F)ccc1C1(N2CCN(c3ccncc3)CC2)C(=O)N(S(=O)(=O)c2cccc3cccnc23)c2ccc(C#N)cc21 (racemic) [Example 46, (±)-5-Cyano-3-(2-ethoxy-4-fluorophenyl)-3-(4-pyridin-4-ylpiperazin-1-yl)-1-(quinoline-8-sulfonyl)-2,3-dihydro-1H-indol-2-one] | 7.30 to 8.00
9 | CCOc1ccc(C)cc1C1(N2CCN(c3ccncc3)CC2)C(=O)N(S(=O)(=O)c2ccc(OC)c3cccnc23)c2ccc(C#N)cc21 (racemic) [Example 159, (±)-5-Cyano-3-(2-ethoxy-5-methyl-phenyl)-1-(5-methoxy-quinoline-8-sulfonyl)-3-(4-pyridin-4-yl-piperazin-1-yl)-2,3-dihydro-1H-indol-2-one] | > 8.00
10 | CCOc1ccc(OC)cc1C1(N2CCN(c3ccnc(CC)c3)CC2)C(=O)N(S(=O)(=O)c2ccc(OC)c3cccnc23)c2ccc(C#N)cc21 (racemic) [Example 72, (±)-5-Cyano-3-(2-ethoxy-5-methoxyphenyl)-3-[4-(2-ethylpyridin-4-yl)piperazin-1-yl]-1-(5-methoxyquinoline-8-sulfonyl)-2,3-dihydro-1H-indol-2-one] | 7.30 to 8.00
11 | CCOc1ccccc1C1(N2CCN(c3ccncc3C)CC2)C(=O)N(S(=O)(=O)c2cccc3cccnc23)c2ccc(C#N)cc21 (racemic) [Example 15, (±)-5-Cyano-3-(2-ethoxyphenyl)-3-[4-(3-methylpyridin-4-yl)-piperazin-1-yl]-1-(quinoline-8-sulfonyl)-2,3-dihydro-1H-indol-2-one] | 7.30 to 8.00
12 | CCOc1nc(Cl)ccc1C1(N2CCCN(c3ccnc(C)c3)CC2)C(=O)N(S(=O)(=O)c2ccc(OC)cn2)c2ccc(C#N)cc21 (racemic) [Example 177, (±)-5-Cyano-3-(6-chloro-2-ethoxy-pyridin-3-yl)-1-(5-methoxy-pyridine-2-sulfonyl)-3-[4-(2-methyl-pyridin-4-yl)-[1,4]diazepan-1-yl]-2,3-dihydro-1H-indol-2-one] | > 8.00
13 | COc1ccc(OC)c(C2(N3CCN(c4ccncc4)CC3)C(=O)N(S(=O)(=O)c3cccc4cccnc34)c3ccc(OC)cc32)c1 (racemic) [Example 59, (±)-3-(2,5-Dimethoxyphenyl)-5-methoxy-3-(4-pyridin-4-ylpiperazin-1-yl)-1-(quinoline-8-sulfonyl)-1,3-dihydroindol-2-one] | > 8.00
14 | CCOc1cc(F)ccc1C1(N2CCN(c3ccnc(C(C)C)c3)CC2)C(=O)N(S(=O)(=O)c2ccc(OC)cn2)c2ccc(C#N)cc21 (racemic) [Example 153, (±)-5-Cyano-3-(2-ethoxy-4-fluoro-phenyl)-3-[4-(2-isopropyl-pyridin-4-yl)-piperazin-1-yl]-1-(5-methoxy-pyridine-2-sulfonyl)-2,3-dihydro-1H-indol-2-one] | > 8.00
15 | (+)-5-Cyano-3-(2-ethoxy-5-methoxy-phenyl)-1-(5-methoxy-pyridine-2-sulfonyl)-3-[4-(4-methyl-piperazin-1-yl)-piperidin-1-yl]-2,3-dihydro-1H-indol-2-one [Example 158] | > 8.00
16 | CCOc1cc(F)ccc1C1(N2CCCN(c3ccncc3)CC2)C(=O)N(S(=O)(=O)c2ccc(OC)cn2)c2ccc(C#N)cc21 (racemic) [Example 147, (±)-5-Cyano-3-(2-ethoxy-4-fluoro-phenyl)-1-(5-methoxy-pyridine-2-sulfonyl)-3-(4-pyridin-4-yl-[1,4]diazepan-1-yl)-2,3-dihydro-1H-indol-2-one] | 7.30 to 8.00
17 | CCOc1ccc(OC)cc1C1(N2CCN(C3CCN(C)CC3)CC2)C(=O)N(S(=O)(=O)c2ccc(OC)cn2)c2ccc(C#N)cc21 (single isomer, unassigned; (+)) [Example 141, (+)-5-Cyano-3-(2-ethoxy-5-methoxy-phenyl)-1-(5-methoxy-pyridine-2-sulfonyl)-3-[4-(1-methyl-piperidin-4-yl)-piperazin-1-yl]-2,3-dihydro-1H-indol-2-one] | 7.30 to 8.00
18 | CCOc1ccc(C)cc1C1(N2CCN(c3ccnc(C)c3)CC2)C(=O)N(S(=O)(=O)c2ccc(OC)cn2)c2ccc(C#N)cc21 (racemic) [Example 180, (±)-5-Cyano-3-(2-ethoxy-5-methyl-phenyl)-1-(5-methoxy-pyridine-2-sulfonyl)-3-[4-(2-methyl-pyridin-4-yl)-piperazin-1-yl]-2,3-dihydro-1H-indol-2-one] | > 8.00
19 | CCOc1ccccc1C1(N2CCN(c3ccncc3)CC2)C(=O)N(S(=O)(=O)c2cccc3c(CC)ccnc23)c2ccc(C#N)cc21 (racemic) [Example 84, (±)-5-Cyano-3-(2-ethoxyphenyl)-1-(4-ethylquinoline-8-sulfonyl)-3-(4-pyridin-4-yl-piperazin-1-yl)-2,3-dihydro-1H-indol-2-one] | > 8.00
20 | CCOc1ccc(OC)cc1C1(N2CCN(c3ccncc3)CC2)C(=O)N(S(=O)(=O)c2ccc(Cl)c3cccnc23)c2ccc(C#N)cc21 (racemic) [Example 48, (±)-5-Cyano-1-(5-chloroquinoline-8-sulfonyl)-3-(2-ethoxy-5-methoxyphenyl)-3-(4-pyridin-4-ylpiperazin-1-yl)-2,3-dihydro-1H-indol-2-one] | 7.30 to 8.00
21 | COc1ccccc1C1(N2CCN(c3ccncc3)CC2)C(=O)N(S(=O)(=O)c2cccc3cccnc23)c2cc(C)ccc21 (racemic) [Example 39, (±)-3-(2-Methoxyphenyl)-6-methyl-3-(4-pyridin-4-ylpiperazin-1-yl)-1-(quinoline-8-sulfonyl)-1,3-dihydroindol-2-one] | 7.30 to 8.00

Source: patent US8486931B2, “Substituted oxindole compounds” (Abbott GmbH & Co. KG, priority 2007, dated 2013)
